Laboratory results published in patent US12233129B2, “Methods and compositions for the treatment of cancer” (priority 2019, dated 2025).
“Also recorded” adds a separate entry of the source.

Columns and labels:
[1] = test system: p53; test: Western blot of p53 in cytoplasm and nuclear fractions of etoposide-treated HCT-116 cells; format: cell-based, human; conditions: 20 and 50 μM etoposide, 24 h
From the text: Small molecules, p53 c-terminus peptides, and silenced mot-2 abrogate mot-2-p53 complexes, resulting in p53 nuclear localization. Because UBXN2A is capable of releasing p53 from mot-2, we decided to determine whether UBXN2A can lead to p53 nuclear accumulation in a similar mechanism. HCT-116 cells were transiently transfected with different amounts of UBXN2A plasmid. Exogenous UBXN2A was detected dominantly in the cytoplasm fraction (FIG. 4a), and, therefore, it is an ideal model to identify the cellular consequences of UBXN2A gain-of-function. After 48 h, nuclear and cytoplasmic fractions were collected, followed by WB analysis (FIGS. 4a-d). […] Similar to several previously reported scenarios,^23 co-upregulation of UBXN2A with p53 may be essential to inhibiting mot-2 and delivering maximum p53 into nuclei during the initiation of genotoxic stress. Similar results were obtained in response to single DNA-strand damage produced by UVB irradiation. In the next step, we decided to determine whether UBXN2A increases the transcriptional activities of p53. We found overexpression of UBXN2A led to upregulation of BAX protein^24 (FIG. 4g). In addition, the level of cleaved PARP increased in the presence of overexpressed UBXN2A (FIG. 4g). […]

[2] = test system: HCT-116
Experimental: (§1) Besides the cell viability assay, we decided to measure the apoptotic activity in the above combination therapy.
(§2) Cells were treated with 5-FU (5-100 μM) and etoposide (1-50 μM) along with VTD (30 and 100 μM respectively) in two different set of experiments for 24 hours.
(§3) An MTT (3[4, 5-dimethylthiazol-2-yl]-2, 5-diphenyltetrazolium bromide) assay was performed to measure the viability of cells. Briefly, cells were seeded at a density of 10×10^3 cells per well in phenol-red free growth media. After 24 hours, cells were treated with various concentrations of VTD±5-FU or etoposide. After incubation, an MTT dye was added to the cells for 2-4 hours. The absorbance of samples was measured at 630 nm using an EXL808 absorption spectrophotometer (Biotek, Winooski). The viability of cells was calculated as % of control. Cell detachment and clonogenic survival assays were conducted as previously described. Early apoptosis, caspase-3, cleaved PARP and Sytox Red (Life Technology, NY, USA) were measured by the Accuri C6 flow cytometer system (BD Pharmingen, MD, USA).[54]
(§4) (A-H) (A-C) HCT-116 and (D-F) LoVo were treated with VTD (10-300 μM) for 24, 48, and 72 hours. A suboptimal dose of Etoposide (ETO) ([…]) was added to cells for the last 24 hours only. The viability of cells was determined as % of control (untreated cells) using an MTT assay. […] (G-H) HCT-116 (G) and LoVo (H) cells were treated with VTD (10-200 μM) and a suboptimal dose of ETO (5 μM) for 24 hours. Cells were then stained with Annexin V apoptotic marker. […] (I-L) HCT-116 and LoVo cells were treated with different doses of 5-FU (5-100 μM, I-J) and ETO (1-50 μM, K-L) along with VTD (30 μM and 100 μM respectively) for 24 hours.

[3] = test system: LoVo
Experimental: as §1, §2, §3, §4

[4] = test system: UBXN2A; test: RT-PCR and western blot of UBXN2A in etoposide-treated HCT-116 cells; format: cell-based, human
[5] = test system: HCT-116; test: Annexin V early apoptosis, VTD plus etoposide; format: cell-based, human; conditions: VTD 10-200 μM plus etoposide 5 μM, 24 hours
Experimental: (§5) The viability of cells was calculated as % of control.
(§6) Cells were then stained with Annexin V apoptotic marker.

[6] = test system: LoVo; test: Annexin V early apoptosis, VTD plus etoposide; format: cell-based, human; conditions: VTD 10-200 μM plus etoposide 5 μM, 24 hours
Experimental: as §5, §6

[7] = test system: SW-48 (WT-p53) colon cancer cells; test: Cell viability / clonogenic survival with and without mot-2 inhibitor MKT-077; format: cell-based, human; parameters: dose or concentration left out as unconfirmed; conditions: VTD with mot-2 inhibitor MKT-077, 72 hours
Experimental: We decided to confirm whether VTD-induced tumor suppression is indeed mediated via the UBXN2A-mot-2-p53 axis (FIG. 18H). After initial verification with WB (FIG. 18A), HCT-116 (p53+/+ and p53 −/−) and LoVo were treated with VTD for 24, 48, and 72 hours (FIG. 18B-D). […] We defined this phenomenon as a delayed cytotoxic response, since it occurs through UBXN2A transcription, as previously described for other anti-cancer agents. […] In the second set of experiments, we treated two stable UBXN2A silenced clones of HCT-116 along with controls with VTD. […] Staurosporine-treated cells were used as a positive control (S4F). […] Finally, to understand the contribution of mot-2 to the anti-cancer mechanism of VTD, we used a mot-2 inhibitor known as MKT-077 [7] along with VTD in well-differentiated SW-48 (WT-p53) colon cancer cells for 72 hours. Due to the critical role of mot-2 in the mitochondria, we could not use a silencing strategy for mot-2 in this set of experiments.
FIG. 18: Veratridine (VTD) functions via the UBXN2A-mot-2-p53 axis. (A) WB confirmed the presence and the absence of p53 protein in HCT-116 p53^(+/+) and HCT-116 p53^(−/−) cancer cell lines, respectively. […] (F) In another set of experiments, UBXN2A-silenced cells were treated with VTD (100, 200, and 300 μM) for 24 hours. Cells were then labelled with Sytox Red followed by flow cytometry analysis. […] (G) SW48 well-differentiated colon cancer cells with WT-p53 were treated with MKT-077 (5 mg/ml), an mot-2 inhibitor, along with VTD for 72 hours. […] (H) This flowchart recapped the sequence of proteins which activate and function upon VTD exposure to decrease cell viability. The data is shown as mean±SEM of three independent experiments (n=3) in triplicate where *p<0.05 using Benferroni's modified student's t-test.

[8] = target: T1, p53-mot-2 (Homo sapiens, UniProt P38646); test: In vitro competition immunoprecipitation assay (mot-2, p53, recombinant UBXN2A); format: binding
T1 construct: purchased SignalChem (Richmond, CANADA)
T1 sequence (P38646 47-679): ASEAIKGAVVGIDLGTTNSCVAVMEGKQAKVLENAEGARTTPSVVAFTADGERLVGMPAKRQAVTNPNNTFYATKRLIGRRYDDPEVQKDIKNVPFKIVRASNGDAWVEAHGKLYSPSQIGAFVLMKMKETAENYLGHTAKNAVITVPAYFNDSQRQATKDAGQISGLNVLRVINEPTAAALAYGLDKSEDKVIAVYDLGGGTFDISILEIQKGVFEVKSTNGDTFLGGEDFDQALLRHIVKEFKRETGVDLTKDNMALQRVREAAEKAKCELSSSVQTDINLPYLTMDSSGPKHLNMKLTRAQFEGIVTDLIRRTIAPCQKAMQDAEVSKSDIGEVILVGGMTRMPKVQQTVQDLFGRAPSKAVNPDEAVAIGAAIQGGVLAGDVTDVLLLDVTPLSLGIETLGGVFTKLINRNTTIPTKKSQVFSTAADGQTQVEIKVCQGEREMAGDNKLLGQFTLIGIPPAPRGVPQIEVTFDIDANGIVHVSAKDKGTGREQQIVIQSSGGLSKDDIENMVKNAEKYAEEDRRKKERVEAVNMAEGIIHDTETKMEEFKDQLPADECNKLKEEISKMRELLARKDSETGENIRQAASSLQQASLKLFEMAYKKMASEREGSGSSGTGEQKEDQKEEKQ
From the text: Because mot-2 binds to the […] of p53 and sequesters WT-p53 in the cytoplasm, we asked whether binding UBXN2A to mot-2 can alter mot-2's affinity for p53. […] That is, the two complexes might be mutually exclusive. To further determine whether the binding of mot-2 to UBXN2A decreases the binding of mot-2 to p53, we performed two set of immunoprecipitation experiments with recombinant UBXN2A. FIG. 3a describes an in vitro competition immunoprecipitation assay system containing mot-2, p53, and an increasing amount of recombinant UBXN2A. […] The lowest binding between p53-mot-2 was observed when UBXN2A and mot-2 were present in approximately a 1:1 ratio by their molecular mass (lane 1 versus lane 2). In FIG. 3b, cytosolic fractions enriched with mot-2 and p53 proteins (fractions 3-5, FIG. 2e) were incubated with recombinant GST-tag human UBXN2A protein. After the initial 2 h of incubation, samples were subjected to immunoprecipitation with anti-p53 antibodies. GST-UBXN2A and endogenous mot-2 ratio was 2.5:1 in the reaction. […] Next, we decided to verify whether endogenous UBXN2A can interfere with mot-2-p53 binding using an ex vivo model. […]
FIG. 3 UBXN2A and p53 compete for binding to mot-2. […] Mot-2 proteins were eluted from the beads and analyzed by western blotting using an anti-mot-2 antibody. […]

COc1cc([C@@H]2c3cc4c(cc3[C@@H](O[C@@H]3O[C@@H]5CO[C@@H](C)O[C@H]5[C@H](O)[C@H]3O)[C@H]3COC(=O)[C@H]23)OCO4)cc(OC)c1O [etoposide]
p53 upregulation and nuclear localization [1]: upregulation and nuclear localization of p53 becomes significant | cell viability (MTT), combination [2]: significantly enhanced the VTD-induced decrease in cell viability | cell viability (MTT), combination [3]: significantly enhanced the VTD-induced decrease in cell viability | effectiveness of etoposide alone (MTT) ([3]; LoVo versus HCT-116, time-dependent): more effectiveness in well differentiated cells (LoVo) than HCT-116 cells | UBXN2A protein ([4]; etoposide 20 and 50 μM, 24 h): increased; also recorded: significant upregulation of UBXN2A | UBXN2A mRNA ([4]; etoposide 24 h): increased; also recorded: enhances transcription of UBXN2A | early apoptosis (Annexin V) [5]: significantly sensitizes | early apoptosis (Annexin V) [6]: significantly sensitizes

CCn1c(=O)/c(=C2\Sc3ccccc3N2C)s/c1=C\c1cccc[n+]1CC.[Cl-] [MKT-077]
cell viability / colony number [7]: neutralizes the cytotoxic effect of VTD

B1: recombinant human UBXN2A: recombinant GST-tag human UBXN2A protein (SignalChem) (protein, UniProt P68543 1-259, looked up)
UBX domain-containing protein …: MKDVDNLKSIKEEWVCETGSDNQPLGNNQQSNCEYFVDSLFEEAQKVSSKCVSPAEQKKQVDVNIKLWKNGFTVNDDFRSYSDGASQQFLNSIKKGELPSELQGIFDKEEVDVKVEDKKNEICLSTKPVFQPFSGQGHRLGSATPKIVSKAKNIEVENKNNLSAVPLNNLEPITNIQIWLANGKRIVQKFNITHRVSHIKDFIEKYQGSQRSPPFSLATALPVLRLLDETLTLEEADLQNAVIIQRLQKTASFRELSEH
modifications: GST tag
mot-2 protein-bound p53 ([8]; HCT-116 cytosolic fractions 3-5, GST-UBXN2A to endogenous mot-2 ratio 2.5:1, 2 h): decreased the amount of mot-2 protein-bound p53 | mot-2 pulled down by anti-p53 antibodies ([8]; recombinant GST-p53, GST-mot-2, increasing amounts of UBXN2A): decreased the intensity of mot-2 bands
